Results on one molecule are retold here after patent US20050080140A1, “Method for treating or preventing inflammatory disorders” (AnGes MG, Inc., priority 2003, published 2005).

Structures are written as SMILES. Entries after “also recorded” stand apart in the source; their conditions may differ.

In one experiment the test system is IL-13. Kind of experiment: IL-13 ELISA of culture medium of human vascular endothelial cells. It counts as cell-based. Conditions: 24 h; for endogenous IL-13 expression in PGI2-deprived cells: HUVEC treated with PGIS siRNA, cPGI 10 μM, FIG. 6C. As to the method:
Human vascular endothelial cells (1.2×10^4 cells/cm^2) were cultured in EGM-2 containing 2% FBS and several concentrations of cPGI with or without TNF-α for 24 h. Incubation media were collected and stored at −80° C. before assay. Amounts of IL-13 were measured with human IL-13 ELISA system (Amersham Pharmacia Biotech, Buckinghamshire, UK) and amounts of PGI2 were measured as the amounts of 6-keto-PGI1α, a stable metabolite of PGI2, with 6-keto-PGI1α ELISA kit (Cayman Chemical Co., Ann Arbor, Mich.) according to the manufacturers' instructions.
siRNA duplexes with the following sense and antisense sequences were made: PGIS1, 5′-[…]-3′ (SEQ ID NO: 12; sense) and 5′-[…]-3′ (SEQ ID NO: 13; antisense); PGIS2, 5′-[…]-3′ (SEQ ID NO: 14; sense) and 5′-[…]-3′ (SEQ ID NO: 15; antisense); PGIS3, 5′-[…]-3′ (SEQ ID NO: 16; sense) and 5′-[…] (SEQ ID NO: 17; antisense); and PGIS4, 5′-[…]-3′ (SEQ ID NO:, 18; sense) and 5′-[…]-3′ (SEQ ID NO: 19; antisense). siRNAs were synthesized and annealed by Dharmacon Research Inc. (Lafayette, CO). Control non-silencing siRNA, a duplex of sense (5′-UUCUCCGAACGUGUCACGUdTdT-3′; SEQ ID NO: 20) and antisense (5′-ACGUGACACGUUCGGAGAAdTdT-3′; SEQ ID NO: 21) sequences, was purchase from Qiagen (Valencia, Calif.). The cells were initially transfected with 200 pmol per well of the annealed RNA mixture or the same amount of control siRNA using LipofectAMINE2000 (Invitrogen), and 12 h later secondly transfected with the same amount of siRNAs using HVJ-liposome transfection kit (GenomeONE; Ishihara Sangyo, Osaka, Japan) according to the manufacturers' instructions. The cells were retransfected with the siRNAs every 3 days using LipofectAMINE2000 and HVJ-liposome, and used for analyses 10 days after transfection. Microsomal fractions of the cells were prepared and analyzed by immunoblotting with anti-PGIS P4 polyclonal antibody as described previously (Hatae et al., J. Biol. Chem. (2001) 276: 46260-7). The cells treated with siRNAs for 10 days were cultured in fresh EGM-2 containing 2% FBS and TNF-α (0, 10 ng/ml). with or without cPGI (10 μM) for 24 h. The incubation media were collected, and amounts of 6-keto-PGI1α or IL-13 were measured with ELISA kit.
For orientation: ELISA stands for enzyme-linked immunosorbent assay.

Another experiment deals with PPRE (PPARδ activation). Put plainly: PPREx3-luciferase reporter assay. Conditions: HUVEC, 24 h. It counts as cell-based, human. As to the method:
Primary cultured human umbilical vein endothelial cells (HUVEC) and human aortic endothelial cells (HAEC) were obtained from Kurabo Co. Ltd. (Tokyo, Japan) and were cultured in EGM-2 growth medium supplemented with 2% fetal bovine serum (FBS) and a mixture of growth factors according to the supplier's instructions. Total RNA from the cells in culture was prepared with Isogen (Nippon Gene, Tokyo, Japan). Human embryonic kidney HEK-293 cells were cultured in DMEM containing 10% FBS, 2 mM L-glutamine, 100 U/ml penicillin and […] streptomycin as described previously (Hatae et al., J. Biol. Chem. (2001) 276: 46260-7). […] HEK-293 cells were transfected with DNA using lipofectAMINE (Invitrogen, Carlsbad, Calif.) as described previously (Hatae et al., J. Biol. Chem. (2001) 276: 46260-7). Human vascular endothelial cells were transfected with TransIT LT-1 (PanVera Co., Madison, Wis.). Transfections were performed at a ratio of 1 μg of DNA to 3.0 μl of the reagents, and cells were incubated in serum-free EGM-2 at 37° C. for 5 h. Subsequently, cells were grown in fresh EGM-2 containing 2% FBS and a mixture of growth factors for 12 h before analysis. For reporter assay, human vascular endothelial cells (1.2×10^4 cells/cm^2) were cotransfected with 0.2 μg of the PPREx3-luciferase reporter vector and 0.1 μg of β-galactosidase expression vector by use of TransIT LT-1. After 17 h of transfection, cells were washed with PBS, incubated in EGM-2 containing 2% FBS and cPGI (0-100 μM) for 24 h at 37° C., and subjected to luciferase assay as described previously (Hatae et al., J. Biol. Chem. (2001) 276: 46260-7). The luciferase activity of the extract was normalized to β-galactosidase activity.
On the technique in general: A reporter such as luciferase makes a cellular process visible.

A further experiment deals with COX-2 gene. Kind of experiment: RT-PCR analysis of COX-2 mRNA. It counts as cell-based, human. Conditions: HUVEC, cPGI 10 μM, 12 h, FIG. 5 lane 3. As to the method:
For analysis of IL-13, human vascular endothelial cells (1.2×10^4 cells/cm^2) were stimulated with cPGI (10 μM) for 12 h, and total RNA was prepared from stimulated cells with Isogen (Nippon Gene). For analysis of COX-2, human vascular endothelial cells (1.2×10^4 cells/cm^2) were pretreated with TNF-α (1 ng/ml) and IL-1b (20 ng/ml) for 1 h, and then treated with cPGI (0, 10 μM), anti-human IL-13 monoclonal antibody (0, 0.5 μg/ml) and control IgG (0, 0.5 μg/ml) for 12 h to prepare total RNA. The total RNA (0.5 μg) was used for analysis by SuperScript RT-PCR system (Invitrogen) according to the manufacturer's instructions. The oligonucleotide primers used were IL-13-s (5′-[…]-3′ (SEQ ID NO: 6); sense) and IL-13-as (5′-[…]-3′ (SEQ ID NO: 7); antisense) for human IL-13, β-actin-s (5′-[…]-3′ (SEQ ID NO: 8); sense) and β-actin-as (5′-[…]-3′ (SEQ ID NO: 9); antisense) for human β-actin, and COX-2-s (5′-[…]-3′ (SEQ ID NO: 10); sense) and COX-2-as (5′-[…]-3′ (SEQ ID NO: 11); antisense) for human COX-2. For each PCR amplification, 1 μl of cDNA was used in a 50 μl reaction. Reverse transcription-PCR (RT-PCR) for β-actin (25 cycles) was used as an internal control for mRNA abundance. For IL-13 and COX-2 genes, the number of cycles ranged from 25 to 45. […] Samples were normalized based on equivalent expression of β-actin.

For the molecule `CCCCC[C@H](O)/C=C/[C@@H]1[C@H]2C/C(=C/CCCC(=O)O)C[C@H]2C[C@H]1O` [cPGI, carbaprostacyclin], the “endogenous IL-13 expression in PGI2-deprived cells” value in the experiment with IL-13 was “significantly increased”; in the experiment with IL-13 (listed as carbaprostacyclin), “significantly induced”. Also, the “production of IL-13, exogenous cPGI added to TNF-α” value in the experiment on IL-13 (HUVEC, TNF-α 0-10 ng/ml with cPGI 0, 2 or 10 μM, dose-dependent, FIG. 4C) is given as “enhanced”. For the same molecule, the “IL-13 protein in the culture medium (ELISA)” value in the experiment on IL-13 (HUVEC, cPGI 0, 1, 10 and 100 μM, FIG. 1B) was “detectable; also recorded: dose-dependent”. In addition, the “luciferase activity of PPRE reporter, exogenous cPGI added to TNF-α” value in the experiment with PPRE (PPARδ activation) (TNF-α 0-10 ng/ml with cPGI 0, 2 or 10 μM, dose-dependent, FIG. 4B) was “enhanced”. Besides, the “luciferase activity of reporter vector containing PPRE” value in the experiment on PPRE (PPARδ activation) (cPGI 0, 1, 10 and 100 μM, FIG. 1C) is recorded as “dose-dependent”. Further, in the experiment on COX-2 gene, the “inducible expression of COX-2 (TNF-α and IL-1 induced)” value is on record as “significantly inhibited”.
